Source: patent publication US10988523B2, “Modified lipidated Relaxin B chain peptides and their therapeutic use” (Sanofi, priority 2018, dated 2021)
*1 amine or outer side, *2 acyl side, *3 side chain or, on linkers, in order; H or OH if unused. Where a SMILES comes first, the peptide text is derived from it. Side-chain parts run from the residue outwards. [ ]: non-standard residue; d: D form. The star is where a group is joined. X13 = CCCCCCCCCCCCCCCC(=O)N[C@@H](CCC(=O)N[C@@H](CCC(=O)N[C@@H](CCC(=O)NCCCC[C@H](NC(=O)COCC(=O)NCCCOCCOCCOCCCN*)C(N)=O)C(=O)O)C(=O)O)C(=O)O; X16 = CCCCCCCCCCCCCCCCCC(=O)N[C@@H](CCC(=O)N[C@@H](CCC(=O)N[C@@H](CCC(=O)NCCCOCCOCCOCCCNC(=O)COCC(=O)*)C(=O)O)C(=O)O)C(=O)O; γGlu = O=C(O)[C@H](CCC(=O)[*:2])N[*:1]; Stearoyl = CCCCCCCCCCCCCCCCCC(=O)*; Palmitoyl = CCCCCCCCCCCCCCCC(=O)*; αMeK = C[C@](N)(CCCCN)C(=O)O; Nle = CCCC[C@H](N)C(=O)O; AEEA = NCCOCCOCC(=O)O; Aib = CC(C)(N)C(=O)O

Molecular target: T1, RXFP1 (Homo sapiens, UniProt Q9HBX9)
T1 construct: OVCAR5 cells expressing endogenous RXFP1; endogenous in cells; host or cells: OVCAR5 cells
T1 sequence (Q9HBX9 1-757): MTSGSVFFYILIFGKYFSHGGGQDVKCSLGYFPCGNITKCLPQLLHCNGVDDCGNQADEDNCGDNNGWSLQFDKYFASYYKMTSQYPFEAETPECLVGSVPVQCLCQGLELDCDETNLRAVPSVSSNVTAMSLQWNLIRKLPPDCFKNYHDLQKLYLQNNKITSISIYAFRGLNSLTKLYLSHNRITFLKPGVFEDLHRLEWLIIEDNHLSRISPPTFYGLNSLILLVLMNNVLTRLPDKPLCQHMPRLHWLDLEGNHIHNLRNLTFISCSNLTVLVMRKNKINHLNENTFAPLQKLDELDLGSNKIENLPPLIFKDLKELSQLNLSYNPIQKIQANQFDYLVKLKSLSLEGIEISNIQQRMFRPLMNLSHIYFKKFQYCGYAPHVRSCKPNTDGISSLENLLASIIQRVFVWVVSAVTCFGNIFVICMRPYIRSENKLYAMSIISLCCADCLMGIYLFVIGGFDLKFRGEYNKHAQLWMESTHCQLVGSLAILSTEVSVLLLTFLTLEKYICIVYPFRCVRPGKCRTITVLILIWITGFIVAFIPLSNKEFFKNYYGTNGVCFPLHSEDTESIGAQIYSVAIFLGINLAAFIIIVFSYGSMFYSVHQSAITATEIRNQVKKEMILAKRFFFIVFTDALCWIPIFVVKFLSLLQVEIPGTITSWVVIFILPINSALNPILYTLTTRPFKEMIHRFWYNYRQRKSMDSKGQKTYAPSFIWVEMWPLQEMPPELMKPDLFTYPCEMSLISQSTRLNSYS
Assay: OVCAR5 cAMP assay (HTRF), RXFP1 agonist activity
Type: cell-based
Conditions: for Emax: OVCAR-5, maximal cAMP relative to H2-relaxin maximum (100%), read-out: EMax, OVCAR 5 cells (cAMP); for EC50: OVCAR5 cells, cAMP HTRF, read-out: EC50 (nM), OVCAR 5 cells (cAMP)
Summary of the method: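 OVCAR5 cells (endogenous RXFP1) pretreated 40 min at 37° C with 1 mM IBMX, then exposed to peptides in serum-free medium for 30 min at 37° C. Lysate cAMP read by HTRF; EC50 from variable-slope sigmoidal fit; Emax as % of H2-relaxin maximal cAMP in same run.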

Row | Emax [%] | EC50 [nM] | SMILES
1 | 98 |  | CCCCCCCCCCCCCCCCCC(=O)NCCOCCOCC(=O)NCCOCCOCC(=O)NCCOCCOCC(=O)NCCCC[C@H](NC(=O)[C@H](CCCCNC(C)=O)NC(=O)[C@H](CCCCN)NC(=O)[C@H](CCCNC(=N)N)NC(=O)C(C)(C)NC(=O)[C@H](CO)NC(=O)[C@H](Cc1c[nH]c2ccccc12)NC(=O)[C@@H](NC(=O)[C@H](CO)NC(=O)[C@H](CCCC)NC(=O)CNC(=O)[C@H](CCC(=O)O)NC(=O)C(C)(C)NC(=O)C(C)(C)NC(=O)[C@@H](NC(=O)[C@H](CCC(N)=O)NC(=O)[C@H](C)NC(=O)[C@H](CCCNC(=N)N)NC(=O)[C@@H](NC(=O)[C@H](CCCCN)NC(=O)[C@H](CCC(=O)O)NC(=O)[C@H](CCCNC(=N)N)NC(=O)CNC(=O)[C@H](CCC(=O)O)NC(=O)[C@H](CC(C)C)NC(C)=O)C(C)C)[C@@H](C)CC)[C@@H](C)O)C(N)=O [compound 52] (Ac-LEGREKVRAQI[Aib][Aib]EG[Nle]STWS[Aib]RKK(Ac)K([AEEA-AEEA-AEEA-Stearoyl])-NH2)
2 | 90 |  | CCCCCCCCCCCCCCCCCC(=O)N[C@@H](CCC(=O)N[C@@H](CCC(=O)N[C@@H](CCC(=O)NCCCOCCOCCOCCCNC(=O)COCC(=O)NCCCC[C@H](NC(=O)[C@H](CCCCNC(C)=O)NC(=O)[C@H](CCCCN)NC(=O)[C@H](CCCNC(=N)N)NC(=O)C(C)(C)NC(=O)[C@H](CO)NC(=O)[C@H](Cc1c[nH]c2ccccc12)NC(=O)[C@@H](NC(=O)[C@H](CO)NC(=O)[C@H](CCCC)NC(=O)CNC(=O)[C@H](CCC(=O)O)NC(=O)C(C)(C)NC(=O)C(C)(C)NC(=O)[C@@H](NC(=O)[C@H](CCCCNC(C)=O)NC(=O)[C@H](C)NC(=O)[C@H](CCCNC(=N)N)NC(=O)[C@@H](NC(=O)[C@H](CCCCN)NC(=O)[C@H](CCC(=O)O)NC(=O)[C@H](CCCNC(=N)N)NC(=O)CNC(=O)[C@H](CCC(=O)O)NC(=O)[C@H](CC(C)C)NC(C)=O)C(C)C)[C@@H](C)CC)[C@@H](C)O)C(N)=O)C(=O)O)C(=O)O)C(=O)O [compound 94] (Ac-LEGREKVRAK(Ac)I[Aib][Aib]EG[Nle]STWS[Aib]RKK(Ac)K(X16)-NH2)
3 | 87 |  | CCCCCCCCCCCCCCCC(=O)N[C@@H](CCC(=O)N[C@@H](CCC(=O)N[C@@H](CCC(=O)NCCCC[C@H](NC(=O)COCC(=O)NCCCOCCOCCOCCCNC(=O)[C@H](CCCCNC(C)=O)NC(=O)[C@H](CCCCN)NC(=O)[C@H](CCCNC(=N)N)NC(=O)C(C)(C)NC(=O)[C@H](CO)NC(=O)[C@H](Cc1c[nH]c2ccccc12)NC(=O)[C@@H](NC(=O)[C@H](CO)NC(=O)[C@H](CCCC)NC(=O)CNC(=O)[C@H](CCC(=O)O)NC(=O)C(C)(C)NC(=O)C(C)(C)NC(=O)[C@@H](NC(=O)[C@H](CCCCNC(C)=O)NC(=O)[C@H](C)NC(=O)[C@H](CCCNC(=N)N)NC(=O)[C@@H](NC(=O)[C@H](CCCCN)NC(=O)[C@H](CCC(=O)O)NC(=O)[C@H](CCCNC(=N)N)NC(=O)CNC(=O)[C@H](CCC(=O)O)NC(=O)[C@H](CC(C)C)NC(C)=O)C(C)C)[C@@H](C)CC)[C@@H](C)O)C(N)=O)C(=O)O)C(=O)O)C(=O)O [compound 175] (Ac-LEGREKVRAK(Ac)I[Aib][Aib]EG[Nle]STWS[Aib]RKK(Ac)-X13)
4 | 79 | 0.03 | CCCCCCCCCCCCCCCCCC(=O)N[C@@H](CCC(=O)N[C@@H](CCC(=O)N[C@@H](CCC(=O)N[C@@H](CCC(=O)NCCOCCOCC(=O)NCCOCCOCC(=O)NCCOCCOCC(=O)NCCCC[C@H](NC(=O)[C@H](CCCCN)NC(=O)[C@H](CCCCN)NC(=O)[C@H](CCCNC(=N)N)NC(=O)C(C)(C)NC(=O)[C@H](CO)NC(=O)[C@H](Cc1c[nH]c2ccccc12)NC(=O)[C@@H](NC(=O)[C@H](CO)NC(=O)[C@H](CCCC)NC(=O)CNC(=O)[C@H](CCC(=O)O)NC(=O)C(C)(C)NC(=O)C(C)(C)NC(=O)[C@@H](NC(=O)[C@H](CCCCNC(C)=O)NC(=O)[C@H](C)NC(=O)[C@H](CCCNC(=N)N)NC(=O)[C@@H](NC(=O)[C@H](CCCCN)NC(=O)[C@H](CCC(=O)O)NC(=O)[C@H](CCCNC(=N)N)NC(=O)CNC(=O)[C@H](CCC(=O)O)NC(=O)[C@H](CC(C)C)NC(C)=O)C(C)C)[C@@H](C)CC)[C@@H](C)O)C(N)=O)C(=O)O)C(=O)O)C(=O)O)C(=O)O [compound 89] (Ac-LEGREKVRAK(Ac)I[Aib][Aib]EG[Nle]STWS[Aib]RKKK([AEEA-AEEA-AEEA-γGlu-γGlu-γGlu-γGlu-Stearoyl])-NH2)
5 | 79 | 0.69 | CCCCCCCCCCCCCCCCCC(=O)N[C@@H](CCC(=O)N[C@@H](CCC(=O)N[C@@H](CCC(=O)NCCOCCOCC(=O)NCCOCCOCC(=O)NCCOCCOCC(=O)NCCCC[C@H](NC(=O)[C@H](CC(C)C)NC(=O)[C@H](CCCCN)NC(=O)[C@H](CCCNC(=N)N)NC(=O)C(C)(C)NC(=O)[C@H](CO)NC(=O)[C@H](Cc1c[nH]c2ccccc12)NC(=O)[C@@H](NC(=O)[C@H](CO)NC(=O)[C@H](CCCC)NC(=O)CNC(=O)[C@H](CCC(=O)O)NC(=O)C(C)(C)NC(=O)C(C)(C)NC(=O)[C@@H](NC(=O)[C@H](CCCCNC(C)=O)NC(=O)[C@H](C)NC(=O)[C@H](CCCNC(=N)N)NC(=O)[C@@H](NC(=O)[C@H](CCCCN)NC(=O)[C@H](CCC(=O)O)NC(=O)[C@H](CCCNC(=N)N)NC(=O)CNC(=O)[C@H](CCC(=O)O)NC(=O)[C@H](CC(C)C)NC(C)=O)C(C)C)[C@@H](C)CC)[C@@H](C)O)C(N)=O)C(=O)O)C(=O)O)C(=O)O [compound 86] (Ac-LEGREKVRAK(Ac)I[Aib][Aib]EG[Nle]STWS[Aib]RKLK([AEEA-AEEA-AEEA-γGlu-γGlu-γGlu-Stearoyl])-NH2)
6 | 88 | 0.4 | CCCCCCCCCCCCCCCC(=O)N[C@@H](CCC(=O)N[C@@H](CCC(=O)N[C@@H](CCC(=O)N[C@@H](CCC(=O)NCCOCCOCC(=O)NCCOCCOCC(=O)NCCOCCOCC(=O)NCCOCCOCC(=O)NCCCC[C@H](NC(=O)[C@H](CCCCNC(C)=O)NC(=O)[C@H](CCCCN)NC(=O)[C@H](CCCNC(=N)N)NC(=O)[C@](C)(CCCCN)NC(=O)[C@H](CO)NC(=O)[C@H](Cc1ccccc1)NC(=O)[C@@H](NC(=O)[C@H](CO)NC(=O)[C@H](CCCC)NC(=O)CNC(=O)[C@H](CCC(=O)O)NC(=O)C(C)(C)NC(=O)C(C)(C)NC(=O)[C@@H](NC(=O)[C@H](CCCCNC(C)=O)NC(=O)[C@H](C)NC(=O)[C@H](CCCNC(=N)N)NC(=O)[C@@H](NC(=O)[C@H](CCCCN)NC(=O)[C@H](CCC(=O)O)NC(=O)[C@H](CCCNC(=N)N)NC(=O)CNC(=O)[C@H](CCC(=O)O)NC(=O)[C@H](CC(C)C)NC(C)=O)C(C)C)[C@@H](C)CC)[C@@H](C)O)C(N)=O)C(=O)O)C(=O)O)C(=O)O)C(=O)O [compound 140] (Ac-LEGREKVRAK(Ac)I[Aib][Aib]EG[Nle]STFS[αMeK]RKK(Ac)K([AEEA-AEEA-AEEA-AEEA-γGlu-γGlu-γGlu-γGlu-Palmitoyl])-NH2)
7 | 82 | 0.26 | CCCCCCCCCCCCCCCCCC(=O)N[C@@H](CCC(=O)N[C@@H](CCC(=O)N[C@@H](CCC(=O)NCCOCCOCC(=O)NCCOCCOCC(=O)NCCOCCOCC(=O)NCCOCCOCC(=O)NCCCC[C@H](NC(=O)[C@H](CCCCN)NC(=O)[C@H](CCCCN)NC(=O)[C@H](CCCNC(=N)N)NC(=O)C(C)(C)NC(=O)[C@H](CO)NC(=O)[C@H](Cc1c[nH]c2ccccc12)NC(=O)[C@@H](NC(=O)[C@H](CO)NC(=O)[C@H](CCCC)NC(=O)CNC(=O)[C@H](CCC(=O)O)NC(=O)C(C)(C)NC(=O)C(C)(C)NC(=O)[C@@H](NC(=O)[C@H](CCC(N)=O)NC(=O)[C@H](C)NC(=O)[C@H](CCCNC(=N)N)NC(=O)[C@@H](NC(=O)[C@H](CCCCN)NC(=O)[C@H](CCC(=O)O)NC(=O)[C@H](CCCNC(=N)N)NC(=O)CNC(=O)[C@H](CCC(=O)O)NC(=O)[C@H](CC(C)C)NC(C)=O)C(C)C)[C@@H](C)CC)[C@@H](C)O)C(N)=O)C(=O)O)C(=O)O)C(=O)O [compound 92] (Ac-LEGREKVRAQI[Aib][Aib]EG[Nle]STWS[Aib]RKKK([AEEA-AEEA-AEEA-AEEA-γGlu-γGlu-γGlu-Stearoyl])-NH2)
8 | 95 |  | CCCCCCCCCCCCCCCC(=O)NCCOCCOCC(=O)NCCCC[C@H](NC(=O)[C@H](CCCCN)NC(=O)[C@H](CCCNC(=N)N)NC(=O)C(C)(C)NC(=O)[C@H](CO)NC(=O)[C@H](Cc1c[nH]c2ccccc12)NC(=O)[C@@H](NC(=O)[C@H](CO)NC(=O)[C@H](CCCC)NC(=O)CNC(=O)[C@H](CCC(=O)O)NC(=O)C(C)(C)NC(=O)C(C)(C)NC(=O)[C@@H](NC(=O)[C@H](CCC(N)=O)NC(=O)[C@H](C)NC(=O)[C@H](CCCNC(=N)N)NC(=O)[C@@H](NC(=O)[C@H](CCCCN)NC(=O)[C@H](CCC(=O)O)NC(=O)[C@H](CCCNC(=N)N)NC(=O)CNC(=O)[C@H](CCC(=O)O)NC(=O)[C@H](CC(C)C)NC(C)=O)C(C)C)[C@@H](C)CC)[C@@H](C)O)C(N)=O [compound 50] (Ac-LEGREKVRAQI[Aib][Aib]EG[Nle]STWS[Aib]RKK([AEEA-Palmitoyl])-NH2)
